Several values for one entry are separate records, joined by “and”; a condition that tells them apart may be missing. Identical values can stand only once. Toxic doses and inconclusive results are not listed.
Tested on: CD2F1 mice, L1210 leukemia ip, survival T/C
Experiment: NCI In Vivo Anticancer Drug Screen. Data for tumor model L1210 Leukemia (intraperitoneal) in CD2F1 (CDF1) mice
Details: endpoint: mean survival time, higher = longer survival
Procedure, shortened: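 Read-out first: treated-group measurement over vehicle-control measurement, expressed as a ratio. Animals bore a transplanted tumor line and were dosed with compound or vehicle.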

[1] = dose: 50.0 mg/kg/injection, schedule: Q01DX009 (ip), vehicle: saline with Tween-80
[2] = dose: 100.0 mg/kg/injection, schedule: Q01DX009 (ip), vehicle: saline with Tween-80
[3] = dose: 200.0 mg/kg/injection, schedule: Q01DX009 (ip), vehicle: saline with Tween-80
[4] = dose: 100.0 mg/kg/injection, schedule: Q04DX003 (ip), vehicle: saline with Tween-80
[5] = dose: 200.0 mg/kg/injection, schedule: Q04DX003 (ip), vehicle: saline with Tween-80
[6] = dose: 400.0 mg/kg/injection, schedule: Q04DX003 (ip), vehicle: saline with Tween-80
[7] = dose: 200.0 mg/kg/injection, schedule: Q01DX009 (ip), vehicle: saline
[8] = dose: 400.0 mg/kg/injection, schedule: Q01DX009 (ip), vehicle: saline with Tween-80
[9] = dose: 12.5 mg/kg/injection, schedule: Q01DX009 (ip), vehicle: Klucel (hydroxypropylcellulose) (HPC)
[10] = dose: 25.0 mg/kg/injection, schedule: Q01DX009 (ip), vehicle: Klucel (hydroxypropylcellulose) (HPC)
[11] = dose: 50.0 mg/kg/injection, schedule: Q01DX009 (ip), vehicle: Klucel (hydroxypropylcellulose) (HPC)

COc1cc(Cl)ccc1NC(=O)Nc1ccc(C(=O)O)cc1
T/C [1]: 95 % of control
T/C [2]: 95 % of control
T/C [3]: 91 % of control

CC(C)(C)N=C1OC(=O)c2ccccc21
T/C [4]: 101 % of control
T/C [5]: 101 % of control
T/C [6]: 101 % of control

Nc1ccn([C@H]2C[C@@H](CO)[C@H](O)[C@@H]2O)c(=O)n1
T/C (dose: 22.0 mg/kg/injection, schedule: Q03HX024 (ip), vehicle: saline): 159 % of control
T/C (dose: 33.0 mg/kg/injection, schedule: Q03HX024 (ip), vehicle: saline): 164 % of control
T/C (dose: 50.0 mg/kg/injection, schedule: Q03HX024 (ip), vehicle: saline): 169 % of control
T/C (dose: 75.0 mg/kg/injection, schedule: Q04HX024 (ip), vehicle: saline): 176 % of control
T/C (dose: 100.0 mg/kg/injection, schedule: Q04HX024 (ip), vehicle: saline): 177 % of control
T/C (dose: 150.0 mg/kg/injection, schedule: Q01DX009 (ip), vehicle: saline): 150 % of control
T/C [7]: 182 % of control
T/C (dose: 450.0 mg/kg/injection, schedule: Q01DX009 (ip), vehicle: saline): 166 % of control

CCCCCCCOc1ccc(N=[N+]([O-])c2ccc(OCCCCCCC)cc2)cc1
T/C [4]: 95 % of control
T/C [5]: 91 % of control
T/C [6]: 89 % of control

N#C/C(=C\c1cccc(OCc2ccccc2)c1)c1ccc([N+](=O)[O-])cc1
T/C (dose: 6.25 mg/kg/injection, schedule: Q04DX003 (ip), vehicle: saline): 98 % of control
T/C (dose: 12.5 mg/kg/injection, schedule: Q04DX003 (ip), vehicle: saline): 98 % of control
T/C (dose: 25.0 mg/kg/injection, schedule: Q04DX003 (ip), vehicle: saline): 102 % of control

N#CC[CH2][Sn]([c]1ccccc1)([c]1ccccc1)[c]1ccccc1
T/C [4]: 94 % of control
T/C [5]: 91 % of control
T/C [6]: 89 % of control

O=S1(=O)CC(Br)C(Br)C1 (stereo unspecified)
T/C [1]: 88 % of control
T/C [2]: 100 % of control
T/C [4]: 106 % of control
T/C [3]: 110 % of control
T/C [5]: 107 % of control
T/C [6]: 100 % of control

COC(=O)C1(C)CCCC2(C)C1CCC13OC1C(C(C)C)=CCC23 (stereo unspecified)
T/C [2]: 104 % of control
T/C [3]: 97 % of control
T/C [8]: 101 % of control

COc1cc(OC)c2c(O)c3c(c(-c4ccc5cc6c(c(O)c5c4O)C(=O)CC(C)(O)C6)c2c1)CC(C)OC3C (stereo unspecified)
T/C (dose: 0.5 mg/kg/injection, schedule: Q01DX009 (ip), vehicle: Klucel (hydroxypropylcellulose) (HPC)): 103 % of control
T/C (dose: 1.0 mg/kg/injection, schedule: Q01DX009 (ip), vehicle: Klucel (hydroxypropylcellulose) (HPC)): 100 % of control
T/C (dose: 2.0 mg/kg/injection, schedule: Q01DX009 (ip), vehicle: Klucel (hydroxypropylcellulose) (HPC)): 103 % of control

COC1C(CO)OC(n2cnc3c(=S)nc(N)[nH]c32)C1O (stereo unspecified)
T/C [9]: 98 % of control and 101 % of control
T/C [10]: 101 % of control and 106 % of control
T/C [11]: 101 % of control and 106 % of control
T/C (dose: 100.0 mg/kg/injection, schedule: Q01DX009 (ip), vehicle: Klucel (hydroxypropylcellulose) (HPC)): 123 % of control
T/C (dose: 400.0 mg/kg/injection, schedule: Q01DX009 (ip), vehicle: Klucel (hydroxypropylcellulose) (HPC)): 100 % of control

CO[C@@]12[C@@H]3N[C@@H]3CN1C1=C(C(=O)C(NCCN(C)C)=C(C)C1=O)[C@@H]2COC(N)=O
T/C (dose: 1.5 mg/kg/injection, schedule: Q01DX001 (ip), vehicle: water): 106 % of control
T/C (dose: 3.0 mg/kg/injection, schedule: Q01DX001 (ip), vehicle: distilled water + Tween-80): 116 % of control
T/C (dose: 3.0 mg/kg/injection, schedule: Q01DX001 (ip), vehicle: water): 106 % of control
T/C (dose: 6.0 mg/kg/injection, schedule: Q01DX001 (ip), vehicle: water): 116 % of control
T/C (dose: 24.0 mg/kg/injection, schedule: Q01DX001 (ip), vehicle: distilled water + Tween-80): 96 % of control
T/C (dose: 24.0 mg/kg/injection, schedule: Q01DX001 (ip), vehicle: water): 93 % of control

Cc1nnc(NS(=O)(=O)c2ccc(N=Nc3nc4[nH]c(N)nc(=S)c4[nH]3)cc2)s1
T/C [9]: 110 % of control
T/C [10]: 116 % of control
T/C [11]: 122 % of control

S=P(N1CC1)(N1CC1)N1CC1.[Cl-].[Cl-].[NH2-].[NH2-].[Pt+4]
T/C (dose: 0.78 mg/kg/injection, schedule: Q01DX009 (ip), vehicle: Klucel (hydroxypropylcellulose) (HPC)): 112 % of control and 101 % of control
T/C (dose: 1.56 mg/kg/injection, schedule: Q01DX009 (ip), vehicle: Klucel (hydroxypropylcellulose) (HPC)): 114 % of control and 115 % of control and 107 % of control
T/C (dose: 3.13 mg/kg/injection, schedule: Q01DX009 (ip), vehicle: Klucel (hydroxypropylcellulose) (HPC)): 153 % of control
T/C (dose: 6.25 mg/kg/injection, schedule: Q01DX009 (ip), vehicle: Klucel (hydroxypropylcellulose) (HPC)): 111 % of control

C=CC(=O)Nc1cccc(OC(=O)NCC)c1
T/C [2]: 94 % of control
T/C [3]: 92 % of control
T/C [8]: 97 % of control

C1CN2CCN1CC2.O.[Cl][Pt][Cl]
T/C (dose: 12.5 mg/kg/injection, schedule: Q01DX005 (ip), vehicle: water): 97 % of control
T/C (dose: 25.0 mg/kg/injection, schedule: Q01DX005 (ip), vehicle: water): 92 % of control
T/C (dose: 50.0 mg/kg/injection, schedule: Q01DX005 (ip), vehicle: water): 92 % of control
T/C (dose: 50.0 mg/kg/injection, schedule: Q04DX003 (ip), vehicle: water): 102 % of control
T/C (dose: 100.0 mg/kg/injection, schedule: Q01DX005 (ip), vehicle: water): 96 % of control
T/C (dose: 100.0 mg/kg/injection, schedule: Q04DX003 (ip), vehicle: water): 94 % of control
T/C (dose: 200.0 mg/kg/injection, schedule: Q01DX005 (ip), vehicle: water): 96 % of control
T/C (dose: 200.0 mg/kg/injection, schedule: Q04DX003 (ip), vehicle: water): 95 % of control
T/C (dose: 400.0 mg/kg/injection, schedule: Q04DX003 (ip), vehicle: water): 107 % of control

Nc1cc(S(=O)(=O)O)cc2ccc(S(=O)(=O)O)cc12
T/C (dose: 100.0 mg/kg/injection, schedule: Q01DX009 (ip), vehicle: saline): 106 % of control
T/C (dose: 100.0 mg/kg/injection, schedule: Q04DX003 (ip), vehicle: saline): 96 % of control
T/C [7]: 95 % of control
T/C (dose: 200.0 mg/kg/injection, schedule: Q04DX003 (ip), vehicle: saline): 92 % of control
T/C (dose: 400.0 mg/kg/injection, schedule: Q01DX009 (ip), vehicle: saline): 92 % of control
T/C (dose: 400.0 mg/kg/injection, schedule: Q04DX003 (ip), vehicle: saline): 117 % of control

COc1cc(C[C@@H]2COC(=O)[C@]2(O)Cc2ccc(O)c(OC)c2)ccc1O
T/C (dose: 1.0 mg/kg/injection, schedule: Q01DX009 (ip), vehicle: saline + alcohol): 106 % of control
T/C (dose: 2.0 mg/kg/injection, schedule: Q01DX009 (ip), vehicle: saline + alcohol): 104 % of control
T/C (dose: 4.0 mg/kg/injection, schedule: Q01DX009 (ip), vehicle: saline + alcohol): 106 % of control
T/C (dose: 8.0 mg/kg/injection, schedule: Q01DX009 (ip), vehicle: saline + alcohol): 103 % of control
T/C (dose: 16.0 mg/kg/injection, schedule: Q01DX009 (ip), vehicle: saline + alcohol): 101 % of control

Oc1ccc(O)c(/C=N/NC(=S)NC2CC3CC2C2C=CCC32)c1 (stereo unspecified)
T/C (dose: 12.5 mg/kg/injection, schedule: Q01DX009 (ip), vehicle: olive oil, sesame oil, peanut oil): 93 % of control
T/C (dose: 25.0 mg/kg/injection, schedule: Q01DX009 (ip), vehicle: olive oil, sesame oil, peanut oil): 96 % of control
T/C (dose: 50.0 mg/kg/injection, schedule: Q01DX009 (ip), vehicle: olive oil, sesame oil, peanut oil): 100 % of control
T/C (dose: 100.0 mg/kg/injection, schedule: Q01DX009 (ip), vehicle: olive oil, sesame oil, peanut oil): 102 % of control
T/C (dose: 200.0 mg/kg/injection, schedule: Q01DX009 (ip), vehicle: olive oil, sesame oil, peanut oil): 87 % of control
T/C (dose: 400.0 mg/kg/injection, schedule: Q01DX009 (ip), vehicle: olive oil, sesame oil, peanut oil): 94 % of control

C=C(Br)CC1CCCCC1=O (stereo unspecified)
T/C (dose: 100.0 mg/kg/injection, schedule: Q01DX001 (ip), vehicle: saline with Tween-80): 94 % of control
T/C (dose: 100.0 mg/kg/injection, schedule: Q01DX009 (ip), vehicle: saline sonified): 98 % of control
T/C (dose: 200.0 mg/kg/injection, schedule: Q01DX001 (ip), vehicle: saline with Tween-80): 93 % of control
T/C (dose: 200.0 mg/kg/injection, schedule: Q01DX009 (ip), vehicle: saline sonified): 94 % of control
T/C (dose: 400.0 mg/kg/injection, schedule: Q01DX001 (ip), vehicle: saline with Tween-80): 95 % of control
T/C (dose: 400.0 mg/kg/injection, schedule: Q01DX009 (ip), vehicle: saline sonified): 100 % of control

Clc1ccc2c(c1)Nc1cc(Cl)ccc1C=C2
T/C [4]: 98 % of control
T/C [5]: 93 % of control
T/C [6]: 87 % of control

From PubChem BioAssay AID256 (DTP/NCI, 2004)
